# Test results as given in publication PMC7346113, “Screening of Natural Stilbene Oligomers from Vitis vinifera for Anticancer Activity on Human Hepatocellular Carcinoma Cells” (Antioxidants, 2020).
# Columns and labels:
# Assay type in all cases: cell-based, human
# [1] = tested on: Hep3B; assay: Cell cycle analysis by flow cytometry (propidium iodide), Hep3B; conditions: 10 µM; for Cell cycle G0/G1 (percentage of cells) / Cell cycle G2/M (percentage of cells) / Cell cycle S (percentage of cells) / SubG0 (percentage of total cells): mean ± SE
# Protocol: Exponentially growing cells were seeded in 6-wells plates (200,000 cells HepG2 and 180,000 cells Hep3B) 24 h before R2-viniferin treatment. On the day of treatment, the culture medium was replaced with culture medium containing R2-viniferin or vehicle solution (control).
# After a treatment, cells were detached by trypsinization and fixed overnight at 4 °C in 70% ice-cold ethanol diluted in phosphate buffer saline (PBS). The ethanol was then discarded and the cells were washed with ice-cold PBS and finally stained with 25 μg/mL of propidium iodide (Sigma-Aldrich, St Louis, MO, USA) in the presence of 200 μg/mL ribonuclease A (Roche Biochemicals, Indianapolis, IN, USA) for 30 min at room temperature in the dark. Flow cytometry analysis (Beckman Coulter Gallios) was carried out from a total number of 10,000 events acquired in the General Research Services SGIker of the UPV/EHU. Analysis of the data was performed using Summit 4.3 software (Dako, Glostrup, Hovedstaden, Denmark).
# [2] = tested on: caspase-3 activity in HepG2; assay: Caspase-3 activity, Ac-DEVD-AMC fluorogenic substrate
# Protocol: The activity of caspase-3 was measured using the specific synthetic tetrapeptide fluorogenic substrate Ac-DEVD-AMC (BD Pharmigen Biosciences, San Diego, CA, USA). The assay was carried out in 96-well plates in a total volume of 100 µL, with 37 μM of the substrate and 50 µg of protein in the assay medium in 100 mM HEPES, pH 7.4, containing 200 mM NaCl, 0.2% CHAPS, 2 mM EDTA, 20% glycerol, and 5 mM dithiothreitol (DTT).
# In the presence of caspase-3, the Ac-DEVD-AMC substrate is hydrolyzed and the fluorogenic compound AMC is released. The activity was determined by continuous recording of the fluorescence at λex = 360 nm and λem = 460 nm at 37 °C for 2 h every 5 min in a Synergy HT microplate reader (BioTek, Winooski, VT, USA). Results were expressed as the percentage of the fluorescence in control cells.
# [3] = tested on: Bax and Bcl-2 expression in HepG2 cells; assay: Western blot analysis of Bax and Bcl-2 expression; conditions: 24 h
# Protocol: HepG2 cells were seeded in Petri dishes, incubated for 24 h and then treated with 5 and 10 µM R2-viniferin. Following 24 h of treatment, the cells were lysed in ice for 30 min with lysis buffer (20 mM HEPES pH 7.5, 1 mM NaF, 10 mM EGTA, 40 mM β-glycerophosphate, 1% NP-40, 2.5 mM MgCl2, 2 mM orthovanadate, and 1 mM DTT) to which 10 μL/mL of a protease inhibitor cocktail (Sigma-Aldrich, St Louis, USA) was added just before use. Cellular fragments were removed by centrifugation at 12,000× g for 10 min at 4 °C, and total protein concentration was determined by Bradford assay. The cellular protein extracts were boiled at 95 °C for 5 min in Laemmli buffer and separated by sodium dodecyl sulfate–polyacrylamide gel electrophoresis in 15% polyacrylamide gels. Proteins were transferred onto polyvinylidene difluoride (PVDF) membranes by electro-blotting with constant amperage (1 mA/cm^2) for 2 h in a wet chamber. After blocking for 1 h in 5% bovine serum albumin (BSA) Tris-buffered saline containing Tween 20 at room temperature, membranes were incubated overnight at 4 °C with antibodies to Bax (Santa Cruz Biotechnology, 1:500), Bcl-2 (Santa Cruz Biotechnology, 1:500) and glyceraldehyde-3-phosphate dehydrogenase (GAPDH, Abcam, 1:2000). After washing, membranes were probed with their corresponding secondary antibody conjugated to horseradish peroxidase for 1 h at room temperature. Specific proteins were detected using the enhanced chemiluminescence (ECL) substrate kit (Clarity Western ECL substrate, Bio-Rad, Hercules, California, USA) and the blots were imaged with the C-DiGit LI-COR blot scanner (Bonsai Advanced technologies S.L. Madrid, Spain). Intensities of target protein bands were determined by densitometry and normalized to the intensity of the loading control GAPDH protein.
smiles,measurement,setting,value
Oc1ccc([C@H]2c3c(O)cc(O)cc3[C@H]3c4c(cc(O)cc4[C@@H]2c2cc(/C=C/c4cc(O)cc5c4[C@H](c4cc(O)cc(O)c4)[C@@H](c4ccc(O)cc4)O5)ccc2O)O[C@@H]3c2ccc(O)cc2)cc1 [R2-Viniferin],Effect on cell cycle,[1],did not alter cell cycle
same,Cell cycle G0/G1 (percentage of cells),[1]; 24 h,63.6 ± 8.0%
same,Cell cycle G2/M (percentage of cells),[1]; 24 h,20.7 ± 6.1%
same,Cell cycle S (percentage of cells),[1]; 24 h,15.7 ± 3.7%
same,SubG0 (percentage of total cells),[1]; 24 h,2.0 ± 0.6%
same,Cell cycle G0/G1 (percentage of cells),[1]; 48 h,73.7 ± 3.4%
same,Cell cycle G2/M (percentage of cells),[1]; 48 h,16.5 ± 2.0%
same,Cell cycle S (percentage of cells),[1]; 48 h,10.4 ± 1.6%
same,SubG0 (percentage of total cells),[1]; 48 h,1.8 ± 0.4%
same,Cell cycle G0/G1 (percentage of cells),[1]; 72 h,75.5 ± 3.9%
same,Cell cycle G2/M (percentage of cells),[1]; 72 h,14.7 ± 2.9%
same,Cell cycle S (percentage of cells),[1]; 72 h,9.8 ± 1.2%
same,SubG0 (percentage of total cells),[1]; 72 h,3.3 ± 0.7%
same,Effect on caspase-3 activity,"[2]; HepG2, 5 µM",increased caspase-3 activity at 72 h
same,Effect on caspase-3 activity,"[2]; HepG2, 10 µM",increased the caspase-3 activity significantly from 24 h to 72 h
same,Bax/Bcl-2 ratio increase over control,"[3]; HepG2, 5 µM",39%
same,Bax/Bcl-2 ratio increase over control,"[3]; HepG2, 10 µM",123%
same,Expression of anti-apoptotic Bcl-2 proteins,"[3]; HepG2, 5 and 10 µM",downregulated
same,Expression of proapoptotic Bax protein,"[3]; HepG2, 5 and 10 µM",upregulated
